Key:
[1] = tested on: Botrytis cinerea; experiment: Activity and persistency against gray mold on bell-pepper leaves (Use Example 1); type: in vivo; conditions: 63 ppm spray; bell-pepper seedlings; inoculated 7 days after treatment; assessed visually after 5 days; untreated 90%
Description: Activity and Persistency against Gray Mold, Caused by Botrytis cinerea, on Bell-pepper Leaves Bell-pepper seedlings of the cultivar “Neusiedler Ideal Elite” having 4-5 well-developed leaves were sprayed to runoff point with an aqueous suspension having the concentration stated below of active compounds. The suspension or emulsion was prepared from a stock solution containing 10% of active compound in a mixture comprising 85% of cyclohexanone and 5% of emulsifier. The plants were then cultivated for a further 7 days, and the treated plants were then inoculated with a spore suspension of Botrytis cinerea, which comprised 1.7×10^6 spores/ml in a 2% strength aqueous biomalt solution. The test plants were then placed in a climatized chamber at 22-24° C. in high atmospheric humidity. After 5 days, the extent of the fungal infection on the leaves could be determined visually in %, giving not only an indication of the fungicidal action of the substances but also of the persistency.

[2] = tested on: Sphaerotheca fuliginea; experiment: Protective activity against mildew of cucumber (Use Example 3); type: in vivo; conditions: 63 ppm spray; cucumber seedlings, cotyledon area; inoculated 20 hours after spray coating dried; assessed after 7 days; untreated 90%
Description: Protective Activity Against Mildew of Cucumber Caused by Sphaerotheca fuliginea Leaves of potted cucumber seedlings of the cultivar “Chinese Snake”, in the cotyledon stage, were sprayed to runoff point with an aqueous suspension having the concentration stated below of active compounds. The suspension or emulsion was prepared from a stock solution containing 10% of active compound in a mixture comprising 85% of cyclohexanone and 5% of emulsifier. 20 hours after the spray coating had dried on, the plants were inoculated with an aqueous spore suspension of mildew of cucumber (Sphaerotheca fuliginea). The plants were then cultivated in a greenhouse at 20-24° C. and 60-80% relative atmospheric humidity for 7 days. The extent of mildew development was then determined visually in % infection of the cotyledon area.

[3] = tested on: Botrytis cinerea; experiment: Protective activity against gray mold on bell-pepper leaves (Use Example 2); type: in vivo; conditions: 250 ppm spray; bell-pepper seedlings; inoculated the next day; assessed visually after 5 days; untreated 100%
Description: Protective Activity against Gray Mold, Caused by Botrytis cinerea, on Bell-pepper Leaves Bell-pepper seedlings of the cultivar “Neusiedler Ideal Elite” having 4-5 well-developed leaves were sprayed to runoff point with an aqueous suspension having the concentration stated below of active compounds. The active compounds were separately prepared as a stock solution containing 0.25% by weight of active compound in acetone or dimethyl sulfoxide. This solution was admixed with 1% by weight of Emulgator Uniperol® EL (wetting agent based on ethoxylated alkylphenols which has an emulsifying and dispersing effect) and diluted with water to the desired concentration. The next day, the treated plants were inoculated with a spore suspension of Botrytis cinerea, comprising 1.7×10^6 spores/ml in a 2% strength aqueous biomalt solution. The test plants were then placed in a climatized chamber at 22-24° C. in high atmospheric humidity. After 5 days, the extent of the fungal infection on the leaves could be determined visually in %.

Row | Structure (SMILES) | Foliar infection [%] at 63 ppm [1] [%] | Foliar infection [%] at 63 ppm [2] [%] | further results
1 | CCC(C)c1ccccc1NC(=O)c1sccc1C(F)(F)F (stereo not drawn) [I-1] | 5 |  | 
2 | O=C(Nc1ccccc1C1CCCC1)c1sccc1C(F)(F)F [I-2] | 7 |  | 
3 | O=C(Nc1ccccc1C1CCCCC1)c1sccc1C(F)(F)F [I-3] | 3 | 5 | 
4 | O=C(Nc1ccccc1OC(F)(F)C(F)F)c1sccc1C(F)(F)F [I-5] | 3 | 5 | 
5 | O=C(Nc1ccccc1-c1ccc(Cl)cc1)c1sccc1C(F)(F)F [I-6] | 1 | 0 | 
6 | O=C(Nc1ccccc1-c1ccc(F)cc1)c1sccc1C(F)(F)F [I-7] | 1 | 0 | 
7 | CC(C)Oc1cccc(NC(=O)c2sccc2C(F)(F)F)c1 [I-8] | 10 |  | 
8 | O=C(Nc1cccc(OC2CCCC2)c1)c1sccc1C(F)(F)F [I-11] | 7 |  | 
9 | O=C(Nc1ccccc1-c1ccccc1)c1sccc1C(F)(F)F [I-12] |  | 0 | 
10 | CC(C)c1ccc(-c2ccccc2NC(=O)c2sccc2C(F)(F)F)cc1 [I-13] |  | 0 | 
11 | O=C(Nc1ccccc1OCC(F)(F)F)c1sccc1C(F)(F)F [I-14, N-(2-(2,2,2-trifluoroethoxy)phenyl)-3-trifluoromethylthiophene-2-carboxamide] |  |  | melting point: 125 to 127 °C
12 | O=C(Nc1ccccc1C1CCCC1)c1ccsc1C(F)(F)F [II-2] | 10 |  | 
13 | O=C(Nc1ccccc1C1CCCCC1)c1ccsc1C(F)(F)F [II-3] | 5 | 3 | 
14 | O=C(Nc1ccccc1OC(F)(F)C(F)F)c1ccsc1C(F)(F)F [II-5] | 3 |  | 
15 | O=C(Nc1ccccc1-c1ccc(Cl)cc1)c1ccsc1C(F)(F)F [II-6] |  | 0 | 
16 | O=C(Nc1ccccc1-c1ccc(F)cc1)c1ccsc1C(F)(F)F [II-7] | 1 | 5 | 
17 | CC(C)Oc1cccc(NC(=O)c2ccsc2C(F)(F)F)c1 [II-8, N-(3-isopropoxyphenyl)-2-trifluoromethylthiophene-3-carboxamide] | 5 |  | 
18 | CCCCCCOc1cccc(NC(=O)c2ccsc2C(F)(F)F)c1 [II-10] | 10 |  | 
19 | Cc1ccccc1-c1ccccc1NC(=O)c1cscc1C(F)(F)F [III-4] |  |  | Foliar infection [%] at 250 ppm [3]: 3%
20 | CCC(C)c1ccccc1NC(=O)c1cscc1C(F)(F)F (stereo not drawn) [III-5] |  |  | Foliar infection [%] at 250 ppm [3]: 3%
21 | O=C(Nc1ccccc1C1CCCC1)c1cscc1C(F)(F)F [III-7] |  |  | Foliar infection [%] at 250 ppm [3]: 7%
